In patent US20220409686A1, “MEDICAL COMPOSITIONS AND THEIR USES” (BIOMILLENIA SAS, priority 2019, published 2022):
Entries after “also recorded” stand apart in the source; their conditions may differ.

What was measured:
Format in all cases: cell-based
Malassezia restricta [1] = test: disc diffusion inhibition assay (Example 1); conditions: M. restricta lawn in soft agar; 6 mm discs soaked with 15 ul supernatant or ketoconazole 1 mg/ml in DMSO; 5 days incubation
Procedure: (§1) FIG. 1|Inhibition assays of the fungicide ketoconazole as positive control for inhibition and Kazachstania unispora supernatant on M. sympodialis, M. furfur, M. restricta and M. globosa. Inhibition assays were performed using the disc diffusion method. Discs were soaked with ketoconazole (1 mg/ml) or K. unispora supernatant and placed on agar plates containing a soft layer inoculated with a single culture of the different Malassezia species to be tested.
(§2) In order to identify strains inhibiting Malassezia growth, inhibition assays were performed using the disc diffusion method. This method consists in disposing discs imbibed with potential inhibitory substances on Petri plates containing a strain of interest. After optimal growth of the strain of interest, growth inhibition can be observed around discs soaked with substances having an inhibitory effect. Potential inhibitory substances tested in this experiment are supernatants obtained after individually culturing a collection of fungal and bacterial strains. After an incubation of 10 days in their optimal broth, each culture was centrifuged and the supernatant was filtered and further stored at −20° C. Ketoconazole, a fungicide, was used as a positive control for Malassezia growth inhibition. It was diluted in dimethyl sulfoxide at 1 mg/ml. The collection of supernantants was tested on the following species from the genus Malassezia: Malassezia restricta, Malassezia globosa, Malassezia furfur and Malassezia sympodialis. All strains were streaked from −80° C. stock on Modified Leeming and Notman (MLN) agar plates and incubated 10 days at 30° C. A 5 ml liquid culture of each species was made in MLN broth and incubated at 30° C. for 2 days for M. furfur and M. sympodialis and 5 days for M. restricta and M. globosa. To allow a lawn growth of the different Malassezia strains tested, Petri plates were prepared as follows: a bottom layer of 50 ml Modified Sabouraud Dextrose (MSD) agar was poured in Petri plates. The soft agar, constituting the top layer, was a mix of 12.5 ml MSD agar, 10.5 ml MLN broth and 2 ml of liquid culture. Plates were allowed to dry for one hour, then, 6 mm-diameter Whatman™ discs were soaked with 15 ul of each thawed supernatants and ketoconazole and placed on the soft agar plate containing the solidified Malassezia monoculture layer. After an incubation of 5 days, inhibition area could be easily observed around discs. As expected, ketoconazole inhibited all 4 Malassezia species tested in this experiment. […] The strain from which the inhibitory supernatant has been produced was further sequenced using the Sanger technology. The internal transcribed spacer (ITS) of this strain was taxonomically assigned to the yeast Kazachstania unispora (BLASTn, 99% identity, 99% query cover, e-value 0.00).

Malassezia globosa [2] = test: disc diffusion inhibition assay (Example 1); conditions: M. globosa lawn in soft agar; 6 mm discs soaked with 15 ul supernatant or ketoconazole 1 mg/ml in DMSO; 5 days incubation
Procedure: as §1, §2

Malassezia sympodialis = test: disc diffusion inhibition assay (Example 1); conditions: M. sympodialis lawn in soft agar; 6 mm discs soaked with 15 ul supernatant or ketoconazole 1 mg/ml in DMSO; 5 days incubation
Procedure: as §1, §2

Malassezia furfur = test: disc diffusion inhibition assay (Example 1); conditions: M. furfur lawn in soft agar; 6 mm discs soaked with 15 ul supernatant or ketoconazole 1 mg/ml in DMSO; 5 days incubation
Procedure: as §1, §2

Malassezia restricta [3] = test: modified disc diffusion assay with living culture (Example 2); conditions: M. restricta lawn; discs soaked with 15 ul exponentially growing Acetobacter culture or ketoconazole 1 mg/mL in DMSO; 5 days incubation
Procedure: (§3) FIG. 1|Inhibition assays of M. restricta and M. globose by growth of Acetobacter fabarum. Discs were soaked with ketoconazole (1 mg/ml in DMSO) or exponentially growing Acetobacter fabarum culture and placed on agar plates containing a soft layer inoculated with a single culture of the different Malassezia species to be tested. In the upper panel, inhibition of Malassezia globosa is shown; in the bottom panel, Malassezia restricta is shown.
(§4) In order to identify strains whose growth inhibits Malassezia, inhibition assays were performed using a modified disc diffusion method. This method is similar to the classical disc diffusion method that consists in depositing discs imbibed with potential inhibitory substances on Petri plates containing a strain of interest, except that the discs were imbibed with a living culture of an Acetobacter strain. After optimal growth of the strain of interest, growth inhibition can be observed around discs on which the growth of inhibitory bacteria has occurred. Ketoconazole (at 1 mg/mL in DMSO) was used as a positive control for Malassezia growth inhibition. The effect of growth of Acetobacter was tested on Malassezia restricta and Malassezia globosa. All Malassezia strains were streaked from −80° C. stock on Modified Leeming and Notman (MLN) agar plates and incubated 10 days at 30° C. […]

Malassezia globosa [4] = test: as above; conditions: M. globosa lawn; discs soaked with 15 ul exponentially growing Acetobacter culture or ketoconazole 1 mg/mL in DMSO; 5 days incubation
Procedure: as §3, §4

CC(=O)N1CCN(c2ccc(OCC3COC(Cn4ccnc4)(c4ccc(Cl)cc4Cl)O3)cc2)CC1 (stereo not drawn) [ketoconazole]
growth inhibition (inhibition halo around disc) (Malassezia restricta [1]): inhibits growth; also recorded: inhibited | growth inhibition (inhibition halo around disc) (Malassezia globosa [2]): inhibits growth; also recorded: inhibited | growth inhibition (inhibition halo around disc) (Malassezia sympodialis): inhibits growth; also recorded: inhibited | growth inhibition (inhibition halo around disc) (Malassezia furfur): inhibits growth; also recorded: inhibited | growth inhibition (inhibition halo around disc) (Malassezia restricta [3]): inhibits growth; also recorded: inhibited | growth inhibition (inhibition halo around disc) (Malassezia globosa [4]): inhibits growth; also recorded: inhibited
